Where two headings read alike, the source gives them in different places.
Assays:
OATP1B3 = target: T1, OATP1B3 (Homo sapiens, UniProt Q9NPD5); test: Drug uptake in X. laevis oocytes injected with SLCO1B3; assay type: in vitro ADME; conditions: without human serum albumin, 1 µM (darunavir 3 µM, performed once), 18°C, 1hr, mean ± SD; for Drug uptake, OATP1B3: OATP1B3 cRNA injected oocytes; for Drug uptake, Water: water injected control oocytes (Table 3)
T1 sequence (Q9NPD5 1-702): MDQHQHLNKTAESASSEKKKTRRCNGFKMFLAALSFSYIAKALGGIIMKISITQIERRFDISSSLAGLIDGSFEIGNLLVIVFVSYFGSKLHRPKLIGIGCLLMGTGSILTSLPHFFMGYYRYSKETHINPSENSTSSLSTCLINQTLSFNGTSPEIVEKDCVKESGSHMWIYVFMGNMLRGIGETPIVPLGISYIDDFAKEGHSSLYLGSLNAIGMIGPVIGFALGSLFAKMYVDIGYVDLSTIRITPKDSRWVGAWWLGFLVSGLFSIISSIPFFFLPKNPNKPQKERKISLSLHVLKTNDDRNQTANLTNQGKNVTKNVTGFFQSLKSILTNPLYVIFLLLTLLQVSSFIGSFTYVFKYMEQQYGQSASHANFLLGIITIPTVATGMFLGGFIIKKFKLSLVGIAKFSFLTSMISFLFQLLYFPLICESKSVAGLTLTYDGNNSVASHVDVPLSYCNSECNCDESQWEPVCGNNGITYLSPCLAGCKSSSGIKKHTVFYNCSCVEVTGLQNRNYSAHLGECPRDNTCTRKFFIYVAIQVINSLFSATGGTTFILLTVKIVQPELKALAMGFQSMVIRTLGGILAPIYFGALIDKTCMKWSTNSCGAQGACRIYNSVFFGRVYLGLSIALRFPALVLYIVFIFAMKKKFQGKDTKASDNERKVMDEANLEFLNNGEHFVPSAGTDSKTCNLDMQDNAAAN

OATP1B1 [1] = target: T2, OATP1B1 (Homo sapiens, UniProt Q9Y6L6); test: Drug uptake in X. laevis oocytes injected with SLCO1B1; assay type: in vitro ADME; conditions: 1 µM (darunavir 3 µM), 18°C, 1hr, mean ± SD; for Drug uptake, OATP1B1: OATP1B1 cRNA injected oocytes; for Drug uptake, Water: water injected control oocytes (Table 2)
T2 sequence (Q9Y6L6 1-691): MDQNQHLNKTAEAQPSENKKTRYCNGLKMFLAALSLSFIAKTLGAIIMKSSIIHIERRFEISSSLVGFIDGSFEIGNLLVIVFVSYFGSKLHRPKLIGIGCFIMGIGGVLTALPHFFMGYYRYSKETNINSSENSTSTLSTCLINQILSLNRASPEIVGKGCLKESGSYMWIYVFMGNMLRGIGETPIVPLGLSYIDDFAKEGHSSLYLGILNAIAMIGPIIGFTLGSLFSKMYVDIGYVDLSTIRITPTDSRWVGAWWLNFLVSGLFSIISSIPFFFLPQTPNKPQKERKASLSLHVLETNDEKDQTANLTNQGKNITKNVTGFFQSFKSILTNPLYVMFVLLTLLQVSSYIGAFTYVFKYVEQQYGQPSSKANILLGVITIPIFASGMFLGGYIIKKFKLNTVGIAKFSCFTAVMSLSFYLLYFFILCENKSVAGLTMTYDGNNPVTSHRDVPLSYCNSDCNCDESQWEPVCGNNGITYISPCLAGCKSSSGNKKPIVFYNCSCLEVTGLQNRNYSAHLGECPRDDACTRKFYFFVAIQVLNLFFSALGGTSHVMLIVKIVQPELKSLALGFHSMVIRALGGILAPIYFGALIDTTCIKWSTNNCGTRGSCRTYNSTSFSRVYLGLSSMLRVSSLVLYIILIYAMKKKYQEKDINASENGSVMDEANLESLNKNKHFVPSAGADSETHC

OATP1A2 = target: T3, OATP1A2 (Homo sapiens, UniProt P46721); test: Drug uptake in X. laevis oocytes injected with SLCO1A2; assay type: in vitro ADME; conditions: 1 µM (darunavir 3 µM), 18°C, 1hr, mean ± SD; for Drug uptake, OATP1A2: OATP1A2 cRNA injected oocytes; for Drug uptake, Water: water injected control oocytes (Table 1)
T3 sequence (P46721 1-670): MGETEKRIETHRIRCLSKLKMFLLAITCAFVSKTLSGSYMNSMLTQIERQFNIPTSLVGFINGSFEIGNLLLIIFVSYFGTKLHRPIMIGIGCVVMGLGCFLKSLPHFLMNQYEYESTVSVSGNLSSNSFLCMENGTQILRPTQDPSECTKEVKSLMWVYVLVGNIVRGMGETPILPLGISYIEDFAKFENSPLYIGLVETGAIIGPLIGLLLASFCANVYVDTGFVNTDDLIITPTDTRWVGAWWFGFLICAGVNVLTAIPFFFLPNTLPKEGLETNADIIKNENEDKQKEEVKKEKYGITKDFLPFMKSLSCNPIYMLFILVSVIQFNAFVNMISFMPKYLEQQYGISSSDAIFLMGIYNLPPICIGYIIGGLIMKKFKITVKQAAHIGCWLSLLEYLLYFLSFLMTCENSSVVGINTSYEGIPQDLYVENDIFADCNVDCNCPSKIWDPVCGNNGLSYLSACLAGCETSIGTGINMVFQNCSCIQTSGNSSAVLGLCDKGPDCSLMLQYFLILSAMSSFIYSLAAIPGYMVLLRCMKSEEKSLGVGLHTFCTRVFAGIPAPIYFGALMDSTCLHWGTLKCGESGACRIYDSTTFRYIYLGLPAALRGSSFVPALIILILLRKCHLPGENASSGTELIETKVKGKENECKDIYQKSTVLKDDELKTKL

[2] = assay type: in vivo, human
OATP1B1 [3] = target: T2, OATP1B1; conditions: HEK 293 cells stably transfected with SLCO1B1; cited from earlier work
[4] = independent variable Age (Years)
[5] = independent variable Coadministered protease inhibitor
[6] = independent variable Male Gender
[7] = independent variable SLCO1A2 38T>C
[8] = independent variable SLCO1A2 516A>C
[9] = independent variable SLCO1B1 388A>G
[10] = independent variable SLCO1B1 521T>C
[11] = independent variable SLCO1B3 334T>G
[12] = independent variable Weight (per 10kg)
[13] = patients on lopinavir/ritonavir 400mg/100mg b.d., samples included in the analysis

## Cc1cccc(C)c1OCC(=O)N[C@@H](Cc1ccccc1)[C@@H](O)C[C@H](Cc1ccccc1)NC(=O)[C@H](C(C)C)N1CCCNC1=O [Lopinavir, lopinavir]
OATP1B3
  Drug uptake, OATP1B3: 2.30 ± 0.66 pmol/oocyte
  Drug uptake, Water: 1.69 ± 0.78 pmol/oocyte
OATP1B1 [1]; with 2% human serum albumin
  Drug uptake, OATP1B1: 1.14 ± 0.41 pmol/oocyte
  Drug uptake, Water: 0.66 ± 0.22 pmol/oocyte
OATP1B1 [1]; without human serum albumin
  Drug uptake, OATP1B1: 4.31 ± 0.72 pmol/oocyte
  Drug uptake, Water: 2.14 ± 0.43 pmol/oocyte
OATP1A2; with 2% human serum albumin
  Drug uptake, OATP1A2: 1.65 ± 0.59 pmol/oocyte
  Drug uptake, Water: 0.82 ± 0.24 pmol/oocyte
OATP1A2; without human serum albumin
  Drug uptake, OATP1A2: 4.07 ± 0.67 pmol/oocyte
  Drug uptake, Water: 2.53 ± 0.36 pmol/oocyte
[2]; in words
  lopinavir Cmin with a SNP located in intron 2 of the SLCO1B1 gene: significantly lower
  median plasma lopinavir Cmin, patients homozygous for the C allele at position 521 of SLCO1B1 compared to T homozygotes or heterozygotes: significantly higher
[2]; [4]
  Univariate effect size on lopinavir C2-6: 6.8%
  Univariate effect size on lopinavir Cmin: 1.1%
[2]; [5]
  Univariate effect size on lopinavir C2-6: −14.9%
  Univariate effect size on lopinavir Cmin: −15.5%
[2]; [6]
  Univariate effect size on lopinavir C2-6: 4.2%
  Univariate effect size on lopinavir Cmin: −5.5%
[2]; [7]
  Univariate effect size on lopinavir C2-6: 5.8%
  Univariate effect size on lopinavir Cmin: 4.7%
[2]; [8]
  Univariate effect size on lopinavir C2-6: 5.4%
  Univariate effect size on lopinavir Cmin: −1.0%
[2]; [9]
  Univariate effect size on lopinavir C2-6: −7.1%
  Univariate effect size on lopinavir Cmin: −7.3%
[2]; [10]
  Univariate effect size on lopinavir C2-6: 12.8%
  Univariate effect size on lopinavir Cmin: 12.2%
[2]; independent variable SLCO1B1 Intron 2 (rs4149032)
  Multivariate effect size on lopinavir Cmin: 0.016 (−11) - %
[2]; independent variable SLCO1B1 Intron 2 (rs4149032), C2-6 = 2-6h post dose
  Univariate effect size on lopinavir C2-6: −4.6%
[2]; independent variable SLCO1B1 Intron 2 (rs4149032), Cmin = 10-14h post dose
  Univariate effect size on lopinavir Cmin: −11.9%
[2]; [11]
  Univariate effect size on lopinavir C2-6: −0.2%
  Univariate effect size on lopinavir Cmin: −1.8%
[2]; [12]
  Multivariate effect size on lopinavir Cmin: −17.2%
  Univariate effect size on lopinavir C2-6: −13.7%
  Univariate effect size on lopinavir Cmin: −17.4%
[2]; multivariate model
  C2-6 higher for each variant allele of SLCO1B1 521T>C: 11.1%
  C2-6 higher in patients receiving an additional protease inhibitor: 14.4%
  Cmin higher in patients receiving an additional protease inhibitor: 15.4%
  Cmin lower for each variant allele of SLCO1B1 rs4149032: 11%
  Cmin lower for every 10 Kg increase in body weight: 17.2%
[2]; [13]
  median lopinavir concentration (plasma): 5072 ng/mL
  range of lopinavir concentration (plasma): 114 to 24432 ng/mL

## CC(C)(C)NC(=O)[C@@H]1C[C@@H]2CCCC[C@@H]2CN1C[C@@H](O)[C@H](Cc1ccccc1)NC(=O)[C@H](CC(N)=O)NC(=O)c1ccc2ccccc2n1 [Saquinavir, saquinavir]
OATP1B3
  Drug uptake, OATP1B3: 2.17 ± 0.61 pmol/oocyte
  Drug uptake, Water: 1.62 ± 0.45 pmol/oocyte
OATP1B1 [1]; with 2% human serum albumin
  Drug uptake, OATP1B1: 0.64 ± 0.23 pmol/oocyte
  Drug uptake, Water: 0.21 ± 0.06 pmol/oocyte
OATP1B1 [1]; without human serum albumin
  Drug uptake, OATP1B1: 1.78 ± 0.44 pmol/oocyte
  Drug uptake, Water: 0.94 ± 0.26 pmol/oocyte
OATP1A2; with 2% human serum albumin
  Drug uptake, OATP1A2: 0.45 ± 0.05 pmol/oocyte
  Drug uptake, Water: 0.27 ± 0.03 pmol/oocyte
OATP1A2; without human serum albumin
  Drug uptake, OATP1A2: 2.16 ± 0.71 pmol/oocyte
  Drug uptake, Water: 1.01 ± 0.21 pmol/oocyte
OATP1B1 [3]
  Inhibition of bilirubin uptake through OATP1B1: inhibit bilirubin uptake
